According to ChEMBL document CHEMBL1125162, “High-potency dipeptide sweeteners. 2. L-aspartylfuryl-, thienyl-, and imidazolylglycine esters” (J Med Chem, 1990):

Test: Sweetness potency compared to 5-10% sucrose
Format: functional

| Structure (SMILES) | Potency |
| --- | --- |
| COC(=O)C(NC(=O)[C@@H](N)CC(=O)O)C(=O)O[C@@H]1C(C)(C)C2CC[C@]1(C)C2 (stereo in doubt; 2) | 30000 |
| CC12CCC(C1)C(C)(C)[C@@H]2OC(=O)C(NC(=O)[C@@H](N)CC(=O)O)c1ccco1 (some centres not stated) | 630 |
| CC12CCC(C1)C(C)(C)[C@H]2OC(=O)[C@H](NC(=O)[C@@H](N)CC(=O)O)c1ccco1 (some centres not stated) | 16500 |
| CC1(C)C2CC[C@](C)(C2)[C@@H]1OC(=O)C(NC(=O)[C@@H](N)CC(=O)O)c1ccccc1 (stereo in doubt; 5) | 3700 |
| CC1(C)C2CC[C@](C)(C2)[C@@H]1OC(=O)C(NC(=O)[C@@H](N)CC(=O)O)c1ccccc1 (stereo in doubt; 4) | 1200 |
| CC12CCC(C1)C(C)(C)C2OC(=O)C(NC(=O)[C@@H](N)CC(=O)O)c1ccsc1 (some centres not stated) | 2300 |
| CC12CCC(C1)C(C)(C)C2OC(=O)C(NC(=O)[C@@H](N)CC(=O)O)c1c[nH]cn1 (some centres not stated) | 350 |
| CC1CCC(C)C1OC(=O)C(NC(=O)[C@@H](N)CC(=O)O)c1ccco1 (some centres not stated) | 400 |
| CC12CCC(C1)C(C)(C)C2OC(=O)C(Cc1cccs1)NC(=O)[C@@H](N)CC(=O)O (some centres not stated) | 0 |
| CC12CCC(C1)C(C)(C)C2OC(=O)C(NC(=O)[C@@H](N)CC(=O)O)c1cccs1 (some centres not stated) | 2000 |
| CC12CCC(C1)C(C)(C)C2OC(=O)C(NC(=O)[C@@H](N)CC(=O)O)C1CCCO1 (some centres not stated) | 0 |
| COC(=O)C(NC(=O)[C@@H](N)CC(=O)O)C(=O)O[C@@H]1C(C)(C)C2CC[C@]1(C)C2 (stereo in doubt; 3) | 50000 |
